Results reported in patent US20220195383A1, “METHOD FOR PRODUCING PLURIPOTENT STEM CELLS” (KANEKA CORPORATION, priority 2019, published 2022).

Experiments:
[1] = tested on: human iPS cell line RPChiPS771-2; test: Quantitative real-time PCR of marker genes after suspension culture with IWP-2; format: cell-based; conditions: IWP-2 2 μM, line RPChiPS771-2, day 10 (Example 2)
WNT3A protein [2] = test: ELISA analysis of WNT3A protein in culture supernatant, suspension culture with IWP-2, line RPChiPS771-2; format: cell-based, human; conditions: IWP-2 2 μM, line RPChiPS771-2, day 5 (Example 2)
[3] = tested on: human iPS cell line 201B7; test: Quantitative real-time PCR of marker genes after suspension culture with IWP-2; format: cell-based; conditions: IWP-2 2 μM, line 201B7, day 10 (Example 1)
Procedure: Cells on day 10 of the culture were treated with Accutase for 3 to 10 minutes and dispersed into single cells by pipetting. These cells were lysed using TRIzol™ Reagent (Thermo Fisher Scientific K.K.). Total RNA was isolated and purified from a cell solution obtained by lysing with TRIzol™ Reagent using a PureLink (registered trademark) RNA Mini kit (Thermo Fisher Scientific K.K.). A concentration of the purified RNA was measured using BioSpec-nano (Shimadzu Corporation), and 40 ng was separated. 2 μL of ReverTra Ace (registered trademark) qPCR RT Master Mix (TOYOBO CO., LTD.) and RNase Free dH2O were added to the separated RNA to prepare 10 μL. cDNA synthesis was performed using SimpliAmp Thermal Cycler (Thermo Fisher Scientific K.K.). […] A synthesized cDNA solution was diluted 100-fold with 10 mM Tris-HCl pH 8.0 (NACALAI TESQUE, INC.) and added to a 384-well PCR plate (Thermo Fisher Scientific K.K.) at 5 μL/well. KOD SYBR® qPCR Mix (TOYOBO CO., LTD.), a Forward primer prepared to 50 μM, a Reverse primer prepared to 50 μM, and DEPC-treated water (NACALAI TESQUE, INC.) were mixed at a ratio of 100:1:1:48. This mixed solution was added to the above-mentioned 384-well PCR plate at 15 μL/well and mixed. For the primers, bACT, OCT4, SOX2, Nanog, Brachyury, and SOX17 were used. The 384-well PCR plate was subjected to centrifugal separation to remove air bubbles in the wells, and quantitative real-time PCR analysis was performed using QuantStudio 7 Flex Real-Time PCR System (Thermo Fisher Scientific K.K.).
Suspension culture was performed under a condition in which an amount of WNT protein contained in a unit of a medium in contact with a unit area of a cell surface was maintained at 2.9×10^2 μg/mL·cm^2 or less. Specifically, the human iPS cell line 201B7 maintenance-cultured by the method in Step 1 of Example 1 was treated with Accutase for 3 to 5 minutes to release the cells from the dish. The cells were dispersed into single cells by pipetting. These cells were suspended in a StemFit (registered trademark) AK02N medium containing Y-27632 at a final concentration of 10 μM. A part of the cells was stained with trypan blue to measure the number of living cells. A cell suspension was prepared so that it contained 2×10^5 cells per mL using the StemFit (registered trademark) AK02N medium containing Y-27632 a final concentration of 10 μM. 4 mL of the cell suspension per well was seeded in a 6-well plate for suspension culture (Sumitomo Bakelite Co., Ltd.). IWP-2 (FUJIFILM Wako Pure Chemical Corporation), which is a WNT protein secretion inhibitor, was added to the seeded wells so that a final concentration was 2 μM. The plate in which the cells were seeded was gyrated on a rotary shaker (Optima Instruments) at a speed of 83 rpm so that a gyrating width (diameter) drew a circle of 25 mm along a horizontal plane, and suspension culture was performed at 37° C. in a 5% CO2 environment. The day when the cells were seeded was defined as day 0 of the culture. Passage was performed on day 5 of the culture, and suspension culture was performed until day 10 of the culture. Medium exchange was performed as follows. A total amount of the medium containing cell aggregates was recovered in a centrifuge tube and left to stand for about 5 minutes to precipitate the cell aggregates. Thereafter, the culture supernatant was removed. […]

WNT3A protein [4] = test: ELISA analysis of WNT3A protein in culture supernatant, suspension culture with IWP-2, line 201B7; format: cell-based, human; conditions: IWP-2 2 μM, line 201B7, day 5 (Example 1)
Procedure: A reagent and a reaction plate attached to a WNT3A ELISA kit (Aviva Systems Biology Corporation) were returned to room temperature. A vial of WNT3A Standard attached to the kit was subjected to centrifugal separation, and a powder in the vial was collected. After adding 1 mL of a diluent solution attached to the kit and mixing, the mixture was left to stand at room temperature for 15 minutes to prepare a WNT3A solution at a final concentration of 10 ng/mL. Based on the WNT3A solution at a final concentration of 10 ng/mL, the solution was diluted with the diluent solution attached to the kit to create WNT3A solution dilution series at final concentrations of 0.156 ng/mL, 0.313 ng/mL, 0.625 ng/mL, 1.25 ng/mL, 2.5 ng/mL, and 5 ng/mL. The dilution series of 0.156 ng/mL to 10 ng/mL and the culture supernatant on day 5 of the culture were added to the reaction plate at 100 μL/well, and a plate seal was attached. […]
Absorbance was measured at 450 nm (corrected wavelength 540 nm) using SpectraMax i3x Multi-Mode Detection Platform (Molecular Devices, LLC.), and a concentration of the WNT3A protein contained in the medium was calculated. Furthermore, an amount of the WNT3A protein of cells (pg/10^4 cells) was calculated from the results of measuring the number of living cells on day 5 of the culture according to the following equation. […]

`Cc1ccc2nc(NC(=O)CSc3nc4c(c(=O)n3-c3ccccc3)SCC4)sc2c1` [IWP-2] was tested, and the “Relative gene expression level with respect to ACTB in 2 ^∧ Ct, Nanog” value [1] was 8.16 × 10^−1, the “Relative gene expression level with respect to ACTB in 2 ^∧ Ct, OCT4” value [1] was 5.72 × 10^−1 and the “Relative gene expression level with respect to ACTB in 2 ^∧ Ct, SOX2” value [1] was 2.31 × 10^−2. For the same molecule, the “Relative gene expression level with respect to ACTB in 2 ^∧ Ct, Brachyury” value ([1]; dash = not detected) was “not detected”, the “Relative gene expression level with respect to ACTB in 2 ^∧ Ct, SOX17” value ([1]; dash = not detected) was “not detected” and the “Concentration of WNT3A protein contained in medium” value (WNT3A protein [2]) was 53.3 pg/mL. For the same molecule, the “Relative gene expression level with respect to ACTB in 2 ^∧ Ct, Nanog” value [3] was 1.30 × 10^−2, the “Relative gene expression level with respect to ACTB in 2 ^∧ Ct, OCT4” value [3] was 1.77 × 10^−1 and the “Relative gene expression level with respect to ACTB in 2 ^∧ Ct, SOX2” value [3] was 2.83 × 10^−2. For the same molecule, the “Relative gene expression level with respect to ACTB in 2 ^∧ Ct, Brachyury” value ([3]; dash = not detected) was “not detected”, the “Relative gene expression level with respect to ACTB in 2 ^∧ Ct, SOX17” value ([3]; dash = not detected) was “not detected” and the “Amount of WNT3A protein contained in unit of medium in contact with unit area of cell surface, average value (n = 10)” value (WNT3A protein [4]) was 2.7 × 10^2 μg/mL · cm^2. The “Concentration of WNT3A protein contained in medium” value (WNT3A protein [4]) was 83.9 pg/mL.
